melting point: 159 to 160 °C
Compound: Oc1ccc2c(c1)OCC(N1CCC(O)(c3ccc(F)cc3)CC1)[C@H]2O (stereo in doubt)
